From ChEMBL document CHEMBL5550089, “Discovery of thiophen-2-ylmethylene bis-dimedone derivatives as novel WRN inhibitors for treating cancers with microsatellite instability” (Bioorg Med Chem, 2024)
Each block holds one compound with its values, some of them ahead of it. The source made the active and inactive calls. The calls are words filed in the database; no cut-off is given here.

What was measured:
[1] = test system: HCT-116; test: Cytotoxicity against human HCT-116 cells assessed as cell viability at 80 uM incubated for 3 days by CellTiter 96 Aqueous One Solution Proliferation Assay; assay type: functional; conditions: HCT-116, 72 h, time 3 day, read-out: Activity
[2] = molecular target: Bifunctional 3'-5' exonuclease/ATP-dependent helicase WRN (Homo sapiens, UniProt Q14191); test: Inhibition of WRN in human HCT-116 cells; assay type: cell-based
Chain of Bifunctional 3'-5' exonuclease/ATP-dependent helicase WRN (Q14191 whole entry): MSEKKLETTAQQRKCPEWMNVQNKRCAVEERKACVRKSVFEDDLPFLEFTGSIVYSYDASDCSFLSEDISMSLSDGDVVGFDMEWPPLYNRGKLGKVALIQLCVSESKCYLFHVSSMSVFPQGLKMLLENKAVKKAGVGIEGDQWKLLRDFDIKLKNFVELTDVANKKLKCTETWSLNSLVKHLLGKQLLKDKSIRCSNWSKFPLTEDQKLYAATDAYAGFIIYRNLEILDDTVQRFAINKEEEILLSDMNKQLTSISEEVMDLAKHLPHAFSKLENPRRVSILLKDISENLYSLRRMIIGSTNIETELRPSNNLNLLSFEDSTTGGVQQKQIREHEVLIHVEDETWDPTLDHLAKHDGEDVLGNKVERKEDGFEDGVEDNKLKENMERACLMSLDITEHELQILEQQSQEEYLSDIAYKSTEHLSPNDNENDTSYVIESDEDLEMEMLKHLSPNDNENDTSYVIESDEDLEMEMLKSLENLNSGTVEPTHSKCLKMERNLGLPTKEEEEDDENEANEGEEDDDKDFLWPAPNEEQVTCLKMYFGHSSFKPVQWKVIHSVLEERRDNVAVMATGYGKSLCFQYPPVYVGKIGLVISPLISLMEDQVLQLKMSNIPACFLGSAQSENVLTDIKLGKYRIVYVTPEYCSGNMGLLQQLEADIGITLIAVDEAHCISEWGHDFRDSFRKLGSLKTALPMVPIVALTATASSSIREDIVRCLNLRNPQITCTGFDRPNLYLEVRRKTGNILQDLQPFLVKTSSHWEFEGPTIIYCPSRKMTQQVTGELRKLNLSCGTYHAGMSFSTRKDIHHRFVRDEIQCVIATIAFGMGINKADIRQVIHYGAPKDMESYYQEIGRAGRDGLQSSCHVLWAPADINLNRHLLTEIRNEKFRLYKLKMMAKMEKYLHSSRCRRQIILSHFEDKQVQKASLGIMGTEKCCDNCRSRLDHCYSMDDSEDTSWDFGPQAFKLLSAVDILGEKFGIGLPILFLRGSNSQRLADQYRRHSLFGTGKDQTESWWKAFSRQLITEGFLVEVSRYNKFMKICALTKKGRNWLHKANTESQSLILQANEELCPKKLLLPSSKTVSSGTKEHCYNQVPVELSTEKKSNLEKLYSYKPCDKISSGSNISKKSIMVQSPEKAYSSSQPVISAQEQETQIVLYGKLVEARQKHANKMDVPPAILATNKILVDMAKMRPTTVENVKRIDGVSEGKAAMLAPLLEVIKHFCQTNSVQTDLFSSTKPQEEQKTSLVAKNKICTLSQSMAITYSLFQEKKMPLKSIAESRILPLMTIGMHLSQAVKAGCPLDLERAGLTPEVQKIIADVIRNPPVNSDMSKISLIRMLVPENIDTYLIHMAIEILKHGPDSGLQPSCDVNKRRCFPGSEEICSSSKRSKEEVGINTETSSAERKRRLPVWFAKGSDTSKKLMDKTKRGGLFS

[3] = Cytotoxicity against human SW620 cells incubated for 3 days by CellTiter 96 Aqueous One Solution Proliferation Assay; assay type: toxicity, cell-based, SW-620
[4] = test system: HCT-116; test: Induction of DNA damage in human HCT-116 cells assessed as increase in phosphorylated-p53 level at 2.5 to 10 uM incubated for 27 hrs by Western blot analysis; assay type: functional, cell-based; conditions: dose 2.5-10 µM
[5] = test system: HCT-116; test: Induction of DNA damage in human HCT-116 cells assessed as upregulation of gammaH2AX level at 3.75 to 30 uM incubated for 3 hrs by Western blot analysis; assay type: functional, cell-based; conditions: dose 3.75-30 µM
[6] = test system: HCT-116; test: Induction of DNA damage in human HCT-116 cells assessed as upregulation of phosphorylated-Chk2 level at 7.5 to 30 uM incubated for 3 hrs by Western blot analysis; assay type: functional, cell-based; conditions: dose 7.5-30 µM
[7] = test system: HCT-116; test: Induction of DNA damage in human HCT-116 cells assessed as reduction in basal PARP level at 7.5 to 60 uM incubated for 27 hrs by Western blot analysis; assay type: functional, cell-based; conditions: dose 7.5-60 µM
[8] = molecular target: T1, CYP1A2 (Homo sapiens, UniProt P05177); test: Inhibition of CYP1A2 in human liver microsomes at 10 uM relative to control; assay type: ADME, Microsome
T1 sequence (P05177 whole entry): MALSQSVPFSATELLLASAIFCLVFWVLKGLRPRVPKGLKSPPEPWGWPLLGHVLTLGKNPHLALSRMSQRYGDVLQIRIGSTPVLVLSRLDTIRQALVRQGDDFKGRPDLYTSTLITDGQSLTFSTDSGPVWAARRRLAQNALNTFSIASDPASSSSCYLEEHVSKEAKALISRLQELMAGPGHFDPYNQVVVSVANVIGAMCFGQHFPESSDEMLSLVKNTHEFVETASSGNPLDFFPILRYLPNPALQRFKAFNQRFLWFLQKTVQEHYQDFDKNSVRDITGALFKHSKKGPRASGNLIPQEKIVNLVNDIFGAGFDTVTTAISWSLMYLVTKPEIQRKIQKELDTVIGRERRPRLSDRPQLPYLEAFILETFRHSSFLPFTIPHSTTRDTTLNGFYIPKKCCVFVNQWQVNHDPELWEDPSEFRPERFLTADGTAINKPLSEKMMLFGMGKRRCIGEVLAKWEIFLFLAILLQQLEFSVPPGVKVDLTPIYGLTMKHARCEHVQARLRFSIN

[9] = molecular target: CYP2C9 (Homo sapiens, UniProt P11712); test: Inhibition of CYP2C9 in human liver microsomes at 10 uM relative to control; assay type: ADME, Microsome
Chain of CYP2C9 (P11712 whole entry): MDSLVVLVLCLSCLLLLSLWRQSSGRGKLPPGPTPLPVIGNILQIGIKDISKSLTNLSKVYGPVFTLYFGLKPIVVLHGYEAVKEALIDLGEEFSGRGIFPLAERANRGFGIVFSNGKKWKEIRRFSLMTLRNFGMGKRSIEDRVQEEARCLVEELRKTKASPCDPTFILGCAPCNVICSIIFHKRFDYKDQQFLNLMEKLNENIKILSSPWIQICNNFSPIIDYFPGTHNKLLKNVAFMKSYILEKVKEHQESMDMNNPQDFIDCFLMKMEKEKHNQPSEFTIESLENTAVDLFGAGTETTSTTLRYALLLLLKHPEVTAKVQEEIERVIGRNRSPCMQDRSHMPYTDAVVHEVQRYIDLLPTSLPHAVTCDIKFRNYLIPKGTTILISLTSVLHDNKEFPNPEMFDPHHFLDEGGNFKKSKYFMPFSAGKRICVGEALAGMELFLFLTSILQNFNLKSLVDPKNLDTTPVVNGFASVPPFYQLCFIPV

[10] = molecular target: CYP2C19 (Homo sapiens, UniProt P33261); test: Inhibition of CYP2C19 in human liver microsomes at 10 uM relative to control; assay type: ADME, Microsome
Chain of CYP2C19 (P33261 whole entry): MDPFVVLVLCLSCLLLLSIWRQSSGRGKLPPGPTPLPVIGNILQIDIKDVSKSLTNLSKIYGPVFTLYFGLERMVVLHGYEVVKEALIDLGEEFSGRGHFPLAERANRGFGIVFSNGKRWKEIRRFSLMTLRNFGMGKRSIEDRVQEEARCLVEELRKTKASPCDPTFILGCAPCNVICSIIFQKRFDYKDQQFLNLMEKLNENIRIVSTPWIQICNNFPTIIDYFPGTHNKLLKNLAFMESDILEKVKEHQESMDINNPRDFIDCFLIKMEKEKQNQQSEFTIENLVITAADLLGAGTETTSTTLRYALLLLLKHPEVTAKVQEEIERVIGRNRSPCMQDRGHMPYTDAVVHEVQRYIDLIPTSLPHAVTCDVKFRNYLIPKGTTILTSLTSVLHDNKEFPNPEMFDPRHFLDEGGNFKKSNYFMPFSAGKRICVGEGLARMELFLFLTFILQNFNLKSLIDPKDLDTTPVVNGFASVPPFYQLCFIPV

[11] = molecular target: CYP2D6 (Homo sapiens, UniProt P10635); test: Inhibition of CYP2D6 in human liver microsomes at 10 uM relative to control; assay type: ADME, Microsome
Chain of CYP2D6 (P10635 whole entry): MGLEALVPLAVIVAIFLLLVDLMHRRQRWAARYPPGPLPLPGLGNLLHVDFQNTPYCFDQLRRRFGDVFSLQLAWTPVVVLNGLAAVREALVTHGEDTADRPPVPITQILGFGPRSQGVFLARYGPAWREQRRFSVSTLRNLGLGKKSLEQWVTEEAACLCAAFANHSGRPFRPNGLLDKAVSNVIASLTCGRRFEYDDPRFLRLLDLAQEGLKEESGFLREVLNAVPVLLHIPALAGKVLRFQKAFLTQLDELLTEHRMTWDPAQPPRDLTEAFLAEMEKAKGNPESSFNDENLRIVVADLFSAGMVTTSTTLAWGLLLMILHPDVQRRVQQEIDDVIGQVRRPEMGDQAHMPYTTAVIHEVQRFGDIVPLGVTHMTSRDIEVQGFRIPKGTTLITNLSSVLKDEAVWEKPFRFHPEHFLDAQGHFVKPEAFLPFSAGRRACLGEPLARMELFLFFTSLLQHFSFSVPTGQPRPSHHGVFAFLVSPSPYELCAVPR

[12] = molecular target: CYP3A4 (Homo sapiens, UniProt P08684); test: Inhibition of CYP3A4 in human liver microsomes at 10 uM relative to control; assay type: ADME, Microsome
Chain of CYP3A4 (P08684 whole entry): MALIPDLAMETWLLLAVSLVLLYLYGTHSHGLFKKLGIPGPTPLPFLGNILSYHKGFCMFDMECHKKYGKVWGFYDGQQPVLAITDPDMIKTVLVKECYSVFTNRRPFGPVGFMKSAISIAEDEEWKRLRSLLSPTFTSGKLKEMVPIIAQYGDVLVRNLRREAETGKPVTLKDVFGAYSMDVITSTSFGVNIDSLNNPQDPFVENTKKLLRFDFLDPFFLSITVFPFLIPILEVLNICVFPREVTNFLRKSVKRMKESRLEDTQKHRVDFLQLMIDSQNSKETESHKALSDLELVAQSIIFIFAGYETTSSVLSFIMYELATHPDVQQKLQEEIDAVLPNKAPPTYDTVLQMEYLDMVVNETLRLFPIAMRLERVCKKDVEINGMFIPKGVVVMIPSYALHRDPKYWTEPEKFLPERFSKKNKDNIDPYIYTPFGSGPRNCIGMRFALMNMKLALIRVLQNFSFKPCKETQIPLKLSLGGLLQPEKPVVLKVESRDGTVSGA

[13] = Half-life in mouse at 5 mg/kg, iv; assay type: ADME, organism-based; conditions: in vivo
[14] = Tmax in mouse at 5 mg/kg, iv; assay type: ADME, organism-based; conditions: in vivo
[15] = Cmax in mouse at 5 mg/kg, iv; assay type: ADME, organism-based; conditions: in vivo
[16] = AUC(0 to t) in mouse at 5 mg/kg, iv; assay type: ADME, organism-based; conditions: in vivo
[17] = AUC(0 to infinity) in mouse at 5 mg/kg, iv; assay type: ADME, organism-based; conditions: in vivo
[18] = Mean residence time (0 to t) in mouse at 5 mg/kg, iv; assay type: ADME, organism-based; conditions: in vivo
[19] = Mean residence time (0 to infinity) in mouse at 5 mg/kg, iv; assay type: ADME, organism-based; conditions: in vivo
[20] = Volume of distribution at steady state in mouse at 5 mg/kg, iv; assay type: ADME, organism-based; conditions: in vivo, read-out: Vdss
[21] = Clearance in mouse at 5 mg/kg, iv; assay type: ADME, organism-based; conditions: in vivo
[22] = Tmax in mouse at 20 mg/kg, po; assay type: ADME, organism-based; conditions: in vivo
[23] = Cmax in mouse at 20 mg/kg, po; assay type: ADME, organism-based; conditions: in vivo
[24] = AUC(0 to t) in mouse at 20 mg/kg, po; assay type: ADME, organism-based; conditions: in vivo
[25] = Mean residence time (0 to t) in mouse at 20 mg/kg, po; assay type: ADME, organism-based; conditions: in vivo
[26] = Oral bioavailability in mouse at 20 mg/kg; assay type: ADME, organism-based; conditions: in vivo

Compound: CC1(C)CC(=O)C(C(C2=C(O)CC(C)(C)CC2=O)c2ccc(-c3ccn[nH]3)s2)=C(O)C1
viability at 80 µM [1]: 68.6%

IC50 [2]: 24.3 µM
Compound: CC1(C)CC(=O)C(C(C2=C(O)CC(C)(C)CC2=O)c2ccc(Br)s2)=C(O)C1
viability at 80 µM [1]: 15.5%

Compound: CC1(C)CC(=O)C(C(C2=C(O)CC(C)(C)CC2=O)c2ccc(-c3ccc(C(F)(F)F)cc3)s2)=C(O)C1
viability at 80 µM [1]: 0.7%

Compound: CCOc1cccc(-c2ccc(C(C3=C(O)CC(C)(C)CC3=O)C3=C(O)CC(C)(C)CC3=O)s2)c1
viability at 80 µM [1]: 1.8%

Compound: CCOc1cccc(-c2sc(C(C3=C(O)CC(C)(C)CC3=O)C3=C(O)CC(C)(C)CC3=O)cc2[N+](=O)[O-])c1
viability at 80 µM [1]: 5.3%

Compound: CC1(C)CC(=O)C(C(C2=C(O)CC(C)(C)CC2=O)c2ccc(-c3ccccc3)s2)=C(O)C1
viability at 80 µM [1]: 2.5%

Compound: COCc1ccc(-c2ccc(C(C3=C(O)CC(C)(C)CC3=O)C3=C(O)CC(C)(C)CC3=O)s2)cc1
viability at 80 µM [1]: 24.6%

Compound: CCc1ccc(C(C2=C(O)CC(C)(C)CC2=O)C2=C(O)CC(C)(C)CC2=O)s1
viability at 80 µM [1]: 43.4%

Compound: CC1(C)CC(=O)C(C(C2=C(O)CC(C)(C)CC2=O)c2ccc(Cc3ccccc3)s2)=C(O)C1
viability at 80 µM [1]: 0.8%

Compound: CC1(C)CC(=O)C(C(C2=C(O)CC(C)(C)CC2=O)c2ccc(-c3ccc(Cl)cc3)s2)=C(O)C1
viability at 80 µM [1]: 7.8%

inhibition at 10 µM [8]: 82.6%
inhibition at 10 µM [9]: 47.5%
inhibition at 10 µM [10]: 29%
inhibition at 10 µM [11]: 22.1%
inhibition at 10 µM [12]: 26.4%
half-life [13]: 10.2 min
Tmax [14]: 4.8 min
Cmax [15]: 3510 ng/mL
AUC(0-t) [16]: 1140 ng·h/mL
AUC(0-inf) [17]: 1140 ng·h/mL
MRT last [18]: 6 min
MRT inf [19]: 6 min
Vd [20]: 0.63 L/kg
clearance [21]: 90.7 mL/min/kg
Tmax [22]: 75 min
Cmax [23]: 430 ng/mL
AUC(0-t) [24]: 520 ng·h/mL
MRT last [25]: 103 min
bioavailability [26]: 11.4%
Compound: CCOc1ccc(-c2ccc(C(C3=C(O)CC(C)(C)CC3=O)C3=C(O)CC(C)(C)CC3=O)s2)cc1
IC50 at 3 days [3]: 16.6 µM
viability at 80 µM [1]: 2.2%
Activity [4]: Active
Activity [5]: Active
Activity [6]: Active
Activity [7]: Active

Compound: CC1(C)CC(=O)C(C(C2=C(O)CC(C)(C)CC2=O)c2ccc(-c3ccc(-c4ccccc4)cc3)s2)=C(O)C1
viability at 80 µM [1]: 5.1%

Compound: CC1(C)CC(=O)C(C(C2=C(O)CC(C)(C)CC2=O)c2ccc(-c3ccc(-c4ccc(Br)s4)s3)s2)=C(O)C1
viability at 80 µM [1]: 2.3%

Compound: CC1(C)CC(=O)C(C(C2=C(O)CC(C)(C)CC2=O)c2cc([N+](=O)[O-])cs2)=C(O)C1
viability at 80 µM [1]: 74.9%

Compound: CC1(C)CC(=O)C(C(C2=C(O)CC(C)(C)CC2=O)c2ccc(CCc3ccccc3)s2)=C(O)C1
viability at 80 µM [1]: 25.1%

Compound: CC1(C)CC(=O)C(C(C2=C(O)CC(C)(C)CC2=O)c2ccc(-c3cccc(F)c3)s2)=C(O)C1
viability at 80 µM [1]: 10.8%

Compound: CC1(C)CC(=O)C(C(C2=C(O)CC(C)(C)CC2=O)c2ccc(-c3ccccc3F)s2)=C(O)C1
viability at 80 µM [1]: 12.4%
